Test results taken from ChEMBL document CHEMBL1145605, “Novel 2-imidazoles as potent and selective alpha1A adrenoceptor partial agonists” (Bioorg Med Chem Lett, 2008).
pEC50: −log10 of the molar value.

Key:
[1] = biological target: T1, Alpha-1A adrenergic receptor (Homo sapiens, UniProt P35348); assay: Agonist activity at human cloned adrenergic alpha-1A receptor expressed in CHO cells assessed as calcium mobilization by FLIPR; assay type: functional, cell-based
T1 sequence (P35348 whole entry): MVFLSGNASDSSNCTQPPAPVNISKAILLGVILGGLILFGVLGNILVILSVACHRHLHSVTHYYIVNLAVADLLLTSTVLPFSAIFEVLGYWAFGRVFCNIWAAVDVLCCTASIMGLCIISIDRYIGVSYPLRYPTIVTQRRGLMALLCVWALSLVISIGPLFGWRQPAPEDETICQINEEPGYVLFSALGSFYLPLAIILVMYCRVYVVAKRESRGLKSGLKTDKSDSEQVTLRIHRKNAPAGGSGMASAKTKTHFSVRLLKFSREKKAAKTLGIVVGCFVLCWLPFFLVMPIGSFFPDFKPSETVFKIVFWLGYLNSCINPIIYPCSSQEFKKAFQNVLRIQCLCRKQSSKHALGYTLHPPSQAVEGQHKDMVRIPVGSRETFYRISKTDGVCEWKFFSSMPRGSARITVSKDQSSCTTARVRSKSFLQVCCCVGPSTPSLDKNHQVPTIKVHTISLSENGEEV

[2] = biological target: T2, Alpha-1A adrenergic receptor (Homo sapiens) (UniProt P35348); assay: Agonist activity at human cloned adrenergic alpha-1A receptor expressed in CHO cells assessed as calcium mobilization by FLIPR relative to phenylephrine; assay type: functional, cell-based
T2 sequence (whole entry): T1 sequence (P35348 whole entry)

[3] = biological target: T3, Alpha-1B adrenergic receptor (Homo sapiens, UniProt P35368); assay: Agonist activity at human cloned adrenergic alpha-1B receptor expressed in CHO cells assessed as calcium mobilization by FLIPR; assay type: functional, cell-based
T3 sequence (P35368 whole entry): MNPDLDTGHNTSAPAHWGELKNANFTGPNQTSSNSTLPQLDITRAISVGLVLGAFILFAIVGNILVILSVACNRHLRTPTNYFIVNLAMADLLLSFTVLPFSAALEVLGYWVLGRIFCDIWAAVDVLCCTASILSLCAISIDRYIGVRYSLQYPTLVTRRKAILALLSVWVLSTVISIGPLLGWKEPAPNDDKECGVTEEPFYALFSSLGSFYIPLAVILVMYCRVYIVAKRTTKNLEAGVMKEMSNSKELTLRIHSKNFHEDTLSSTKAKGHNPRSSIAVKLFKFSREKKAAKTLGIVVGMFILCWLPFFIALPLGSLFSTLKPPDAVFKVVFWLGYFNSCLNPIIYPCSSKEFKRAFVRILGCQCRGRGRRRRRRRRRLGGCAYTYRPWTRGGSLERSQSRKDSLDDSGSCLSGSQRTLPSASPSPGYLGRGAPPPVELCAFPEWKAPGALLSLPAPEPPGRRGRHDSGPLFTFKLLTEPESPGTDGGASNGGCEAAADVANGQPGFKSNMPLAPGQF

[4] = biological target: T4, Alpha-1D adrenergic receptor (Homo sapiens, UniProt P25100); assay: Agonist activity at human cloned adrenergic Alpha-1D receptor expressed in CHO cells assessed as calcium mobilization by FLIPR; assay type: functional, cell-based
T4 sequence (P25100 whole entry): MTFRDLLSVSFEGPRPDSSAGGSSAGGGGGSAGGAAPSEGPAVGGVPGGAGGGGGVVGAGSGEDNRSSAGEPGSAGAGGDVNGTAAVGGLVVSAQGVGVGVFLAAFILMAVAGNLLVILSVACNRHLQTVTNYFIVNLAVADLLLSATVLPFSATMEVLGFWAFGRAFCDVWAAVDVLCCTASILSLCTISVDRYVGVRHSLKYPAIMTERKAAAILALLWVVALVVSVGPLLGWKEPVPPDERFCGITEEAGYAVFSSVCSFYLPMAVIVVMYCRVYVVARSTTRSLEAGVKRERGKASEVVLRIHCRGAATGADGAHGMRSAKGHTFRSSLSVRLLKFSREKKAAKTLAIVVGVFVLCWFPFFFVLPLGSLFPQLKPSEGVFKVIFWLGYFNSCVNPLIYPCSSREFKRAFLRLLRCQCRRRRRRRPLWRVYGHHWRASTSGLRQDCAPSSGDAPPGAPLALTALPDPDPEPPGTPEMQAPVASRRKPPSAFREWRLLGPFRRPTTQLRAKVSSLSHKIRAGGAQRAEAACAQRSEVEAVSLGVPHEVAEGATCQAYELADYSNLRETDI

[5] = biological target: T5, Alpha-2A adrenergic receptor (Homo sapiens, UniProt P08913); assay: Agonist activity at human cloned adrenergic alpha-2A receptor expressed in CHOK1 cells by beta-lactamase reporter gene assay; assay type: functional, cell-based, CHO-K1
T5 sequence (P08913 whole entry): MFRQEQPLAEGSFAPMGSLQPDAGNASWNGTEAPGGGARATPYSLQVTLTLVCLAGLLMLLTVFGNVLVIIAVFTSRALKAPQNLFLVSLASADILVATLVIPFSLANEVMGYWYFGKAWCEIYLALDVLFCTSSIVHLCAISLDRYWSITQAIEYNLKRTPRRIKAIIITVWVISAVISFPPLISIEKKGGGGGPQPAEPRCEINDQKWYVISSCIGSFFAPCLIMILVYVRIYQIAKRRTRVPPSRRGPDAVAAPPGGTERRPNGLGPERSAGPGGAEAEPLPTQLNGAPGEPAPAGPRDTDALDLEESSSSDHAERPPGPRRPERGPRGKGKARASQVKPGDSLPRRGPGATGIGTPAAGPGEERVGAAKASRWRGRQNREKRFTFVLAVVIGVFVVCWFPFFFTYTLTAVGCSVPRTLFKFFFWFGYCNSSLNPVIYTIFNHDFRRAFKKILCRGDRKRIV

[6] = biological target: T6, Alpha-2A adrenergic receptor (Homo sapiens) (UniProt P08913); assay: Agonist activity at human cloned adrenergic alpha-2A receptor expressed in CHOK1 cells by beta-lactamase reporter gene assay relative to dexmeditomidine; assay type: functional, cell-based; conditions: CHO-K1
T6 sequence (whole entry): T5 sequence (P08913 whole entry)

[7] = biological target: T7, Alpha-1B adrenergic receptor (Homo sapiens) (UniProt P35368); assay: Agonist activity at human cloned adrenergic Alpha-1B receptor expressed in CHO cells assessed as calcium mobilization by FLIPR relative to phenylephrine; assay type: functional, cell-based
T7 sequence (whole entry): T3 sequence (P35368 whole entry)

[8] = biological target: T8, Alpha-1D adrenergic receptor (Homo sapiens) (UniProt P25100); assay: Agonist activity at human cloned adrenergic Alpha-1D receptor expressed in CHO cells assessed as calcium mobilization by FLIPR relative to phenylephrine; assay type: functional, cell-based
T8 sequence (whole entry): T4 sequence (P25100 whole entry)

Row | SMILES | pEC50 [1] | Emax [2] [%] | pEC50 [3] | pEC50 [4] | pEC50 [5] | Emax [6] [%] | pEC50 ([3]; cho) | pEC50 ([4]; cho) | pEC50 ([5]; cho-k1) | Emax [7] [%] | Emax [8] [%]
1 | COc1cccc2c1CCC2c1ncc[nH]1 (stereo not drawn) | 7.49 | 65 | < 5.00 | < 5.00 | 7.57 | 100 |  |  |  |  | 
2 | CS(=O)(=O)Nc1cccc2c1CCCC2c1ncc[nH]1 (stereo in doubt; 17a) [listing 1 of 2 here] | 6.85 |  |  |  |  |  | < 5.00 | < 5.00 | < 5.00 |  | 
3 | Cn1nccc1-c1cccc2c1CCC2c1ncc[nH]1 (stereo not drawn) | 6.56 | 58 | < 5.00 | < 5.00 | < 5.00 |  |  |  |  |  | 
4 | CCS(=O)(=O)Nc1cccc(Cc2c[nH]cn2)c1 | 8.05 | 96 | < 5.00 | < 5.00 | < 5.00 |  |  |  |  |  | 
5 | Cc1c(OCC2=NCCN2)ccc(Cl)c1NS(C)(=O)=O [DABUZALGRON] |  | 60 | < 5.00 | < 5.00 | < 5.00 |  |  |  |  |  | 
6 | Cc1[nH]ncc1-c1cccc2c1CCC2c1ncc[nH]1 (stereo not drawn) | 8.52 |  | 6.04 | 6.20 | < 5.00 |  |  |  |  |  | 
7 | c1cc(-c2ccn[nH]2)c2c(c1)C(c1ncc[nH]1)CC2 (stereo not drawn) |  | 83 |  |  |  |  |  |  |  | 32 | 57
8 | Cc1oncc1-c1cccc2c1CCC2c1ncc[nH]1 (stereo not drawn) | 6.95 | 63 | < 5.00 | < 5.00 | < 5.00 |  |  |  |  |  | 
9 | CCS(=O)(=O)Nc1cccc2c1CCC2c1ncc[nH]1 (stereo not drawn) | 7.49 | 86 | < 5.00 | < 5.00 | < 5.00 |  |  |  |  |  | 
10 | CS(=O)(=O)Nc1cccc2c1CCCC2c1ncc[nH]1 (stereo in doubt; 17b) [listing 1 of 2 here] | 5.67 |  | < 5.00 | < 5.00 | < 5.00 |  |  |  |  |  | 
11 | CS(=O)(=O)Nc1cccc2c1CCCC2c1ncc[nH]1 (stereo in doubt; 17) [listing 1 of 2 here] | 6.63 |  |  |  |  |  | < 5.00 | < 5.00 | < 5.00 |  | 
12 | c1ccc2c(c1)CCC2c1ncc[nH]1 (stereo not drawn) | 6.33 | 54 | < 5.00 | < 5.00 |  |  |  |  |  |  | 
13 | c1cc(-c2ncco2)c2c(c1)C(c1ncc[nH]1)CC2 (stereo not drawn) | 6.77 | 63 | < 5.00 | 5.86 | < 5.00 |  |  |  |  |  | 38
14 | c1cc(-c2nccs2)c2c(c1)C(c1ncc[nH]1)CC2 (stereo not drawn) | 6.37 | 64 | < 5.00 | 5.50 | < 5.00 |  |  |  |  |  | 27
15 | CCCS(=O)(=O)Nc1cccc2c1CCC2c1ncc[nH]1 (stereo not drawn) | 5.87 | 54 | < 5.00 | < 5.00 |  |  |  |  |  |  | 
16 | Cc1n[nH]cc1-c1cccc2c1CCC2c1ncc[nH]1 (stereo not drawn) |  | 91 |  |  |  |  |  |  |  | 14 | 66
17 | Cc1ccc2c(c1NS(C)(=O)=O)CCC2c1ncc[nH]1 (stereo not drawn) | 7.48 | 83 | < 5.00 | < 5.00 |  |  |  |  |  |  | 

Row | SMILES | pEC50 [1] | Emax [2] [%] | pEC50 [3] | pEC50 [4] | pEC50 [5] | Emax [6] [%] | pEC50 ([3]; cho) | pEC50 ([4]; cho) | pEC50 ([5]; cho-k1) | Emax [7] [%] | Emax [8] [%]
18 | Clc1ccc2c(c1-c1cn[nH]c1)CCC2c1ncc[nH]1 (stereo not drawn) | 7.11 |  | < 5.00 | < 5.00 | < 5.00 |  |  |  |  |  | 
19 | Clc1ccc2c(c1-c1ccn[nH]1)CCC2c1ncc[nH]1 (stereo not drawn) | 6.49 | 40 | < 5.00 | < 5.00 | < 5.00 |  |  |  |  |  | 
20 | c1ccc(-c2cccc3c2CCC3c2ncc[nH]2)nc1 (stereo not drawn) | 5.94 | 53 | < 5.00 | < 5.00 | < 5.00 |  |  |  |  |  | 
21 | COc1c(Cl)ccc2c1CCC2c1ncc[nH]1 (stereo not drawn) | 6.35 | 24 | < 5.00 | < 5.00 |  |  |  |  |  |  | 
22 | CS(=O)(=O)Nc1cccc2c1CCCC2c1ncc[nH]1 (stereo in doubt; 17b) [listing 2 of 2 here] |  | 47 |  |  |  |  |  |  |  |  | 
23 | CS(=O)(=O)Nc1cccc2c1CCCC2c1ncc[nH]1 (stereo in doubt; 17) [listing 2 of 2 here] |  | 79 |  |  |  |  |  |  |  |  | 
24 | c1cc(-c2cn[nH]c2)c2c(c1)C(c1ncc[nH]1)CC2 (stereo not drawn) | 7.85 | 84 | < 5.00 | 6.50 | < 5.00 |  |  |  |  |  | 52
25 | CS(=O)(=O)Nc1cccc2c1CCC2c1ncc[nH]1 (stereo not drawn) | 7.15 | 87 | < 5.00 | < 5.00 | < 5.00 |  |  |  |  |  | 
26 | Cn1ccc(-c2cccc3c2CCC3c2ncc[nH]2)n1 (stereo not drawn) | < 5.89 | 19 | < 5.00 | < 5.00 | < 5.00 |  |  |  |  |  | 
27 | Cn1cc(-c2cccc3c2CCC3c2ncc[nH]2)cn1 (stereo not drawn) | < 5.54 | 12 | < 5.00 | < 5.00 | < 5.00 |  |  |  |  |  | 
28 | c1cc(-c2cc[nH]n2)c2c(c1)C(c1ncc[nH]1)CC2 (stereo not drawn) | 7.28 |  | 6.22 | 6.47 | < 5.00 |  |  |  |  |  | 
29 | CNC(=O)c1cccc2c1CCC2c1ncc[nH]1 (stereo not drawn) | 5.66 | 59 | < 5.00 | < 5.00 | 5.36 | 44 |  |  |  |  | 
30 | COc1c(C)ccc2c1CCC2c1ncc[nH]1 (stereo not drawn) | 6.78 | 40 | < 5.00 | < 5.00 | 6.49 | 89 |  |  |  |  | 
31 | c1cncc(-c2cccc3c2CCC3c2ncc[nH]2)c1 (stereo not drawn) | 5.69 | 36 | < 5.00 | < 5.00 | 5.34 | 25 |  |  |  |  | 
32 | CS(=O)(=O)Nc1cccc2c1CCCC2c1ncc[nH]1 (stereo in doubt; 17a) [listing 2 of 2 here] |  | 79 |  |  |  |  |  |  |  |  | 
33 | c1ccc2c(c1)CCCC2c1ncc[nH]1 (stereo not drawn) | 6.41 | 71 | 6.10 | 6.44 | 6.14 | 105 |  |  |  | 58 | 74
